The values that follow come from ChEMBL document CHEMBL3046879, “Synthesis, antimicrobial evaluation, and QSAR analysis of 2-isopropyl-5-methylcyclohexanol derivatives” (Med Chem Res, 2012).

In one data set the test system is Escherichia coli. Briefly: Antimicrobial activity against Escherichia coli MTCC 739 after 24 hr by serial dilution method. It is filed as functional.
Another data set concerns Candida albicans. Briefly: Antimicrobial activity against Candida albicans MTCC 227 after 2 days by serial dilution method. It is filed as functional.
Another data set concerns Aspergillus niger. Briefly: Antimicrobial activity against Aspergillus niger MTCC 2425 after 7 days by serial dilution method. It is filed as functional.
Another data set has as its system Bacillus subtilis. Briefly: Antimicrobial activity against Bacillus subtilis MTCC 2423 after 24 hr by serial dilution method. It is filed as functional.
The nature of data set [1]: Octanol-water partition coefficient, log P of the compound. It is filed as physicochemical.
The subject of another data set is Staphylococcus aureus. The data set can be described thus: Antimicrobial activity against Staphylococcus aureus MTCC 1430 after 24 hr by serial dilution method. It is filed as functional.

As to `CC(C)[C@@H]1CC[C@@H](C)C[C@H]1OC(=O)/C=C/c1ccc([N+](=O)[O-])cc1`, the “-logMIC” value was found to be 2.33 with Escherichia coli; 2.33 with Candida albicans; 2.18 in the data set with Aspergillus niger; 2.33 in the data set with Bacillus subtilis; 2.03 in the data set on Staphylococcus aureus. The lipophilicity (logP) in data set [1] is 5.18.
As to `COc1cccc(C(=O)O[C@@H]2C[C@H](C)CC[C@H]2C(C)C)c1`, the “-logMIC” value turned out to be 1.97 with Escherichia coli; 1.97 in the data set with Candida albicans; 2.11 in the data set with Aspergillus niger; 1.99 with Bacillus subtilis; 1.97 in the data set on Staphylococcus aureus. In data set [1], this compound registered a log partition coefficient (logP) of 4.57.
`CCn1cc(C(=O)O)c(=O)c2cc(F)c(N3CCNCC3)cc21` [NORFLOXACIN]: the “-logMIC” value in the data set on Escherichia coli, with Bacillus subtilis and in the data set on Staphylococcus aureus was 2.61 throughout.
For `CC(C)[C@@H]1CC[C@@H](C)C[C@H]1OC(=O)CCl`, the “-logMIC” value with Escherichia coli is on record as 1.79; with Candida albicans it was 1.87; in the data set on Aspergillus niger it was 2.17; in the data set on Bacillus subtilis it was 1.86; in the data set on Staphylococcus aureus it was 2. The same compound gave a logP in data set [1] of 3.5.
Consider `Cc1ccccc1C(=O)O[C@@H]1C[C@H](C)CC[C@H]1C(C)C`, for which the “-logMIC” value with Escherichia coli is 2.01; in the data set with Candida albicans, 1.64; in the data set on Aspergillus niger, 1.94; in the data set on Bacillus subtilis it was 1.94; in the data set on Staphylococcus aureus it was 1.94. In data set [1], this compound showed a logP of 5.29.
For `CC(C)[C@@H]1CC[C@@H](C)C[C@H]1OC(=O)c1cccc([N+](=O)[O-])c1`, the “-logMIC” value is 2.29 in the data set with Escherichia coli; 2.33 with Candida albicans; 2.29 with Aspergillus niger; 1.99 in the data set with Bacillus subtilis; 2.29 with Staphylococcus aureus. The compound also yielded a lipophilicity (logP) in data set [1] of 4.78.
With `CC(Cl)C(=O)O[C@@H]1C[C@H](C)CC[C@H]1C(C)C` (stereo partly specified), the “-logMIC” value in the data set on Escherichia coli turned out to be 1.9; in the data set with Candida albicans it was 1.9; with Aspergillus niger it was 1.9; in the data set with Bacillus subtilis it was 1.9; in the data set with Staphylococcus aureus it was 1.6. For the same compound, the log partition coefficient (logP) in data set [1] came to 4.04.
With `CC(C)[C@@H]1CC[C@@H](C)C[C@H]1OC(=O)/C=C/c1ccccc1[N+](=O)[O-]`, the “-logMIC” value with Escherichia coli was determined as 2.33; in the data set with Candida albicans, 2.33; with Aspergillus niger it was 2.33; in the data set with Bacillus subtilis, 2.03; with Staphylococcus aureus it was 2.33. The compound also came in with a logP in data set [1] of 5.18.
As for `CC(C)[C@@H]1CC[C@@H](C)C[C@H]1OC(=O)c1ccc([N+](=O)[O-])cc1[N+](=O)[O-]`, the “-logMIC” value with Escherichia coli came out at 2.35; with Candida albicans, 2.05; with Aspergillus niger, 2.05; in the data set on Bacillus subtilis it was 2.05; in the data set with Staphylococcus aureus, 2.35. For the same compound, the lipophilicity (logP) in data set [1] came to 4.73.
`CC(C)[C@@H]1CC[C@@H](C)C[C@H]1OC(=O)c1cccc(Cl)c1`: the “-logMIC” value is 1.88 in the data set on Escherichia coli; 1.97 in the data set with Candida albicans; 1.97 with Aspergillus niger; 1.97 with Bacillus subtilis; 1.97 in the data set with Staphylococcus aureus. Further, in data set [1], the logP turned out to be 5.34.
With `Cc1ccc(C(=O)O[C@@H]2C[C@H](C)CC[C@H]2C(C)C)cc1`, the “-logMIC” value with Escherichia coli was determined as 1.9; in the data set with Candida albicans, 1.94; in the data set with Aspergillus niger, 2.04; in the data set with Bacillus subtilis, 2.1; in the data set with Staphylococcus aureus it was 1.85. For the same compound, the logP in data set [1] was 5.29.
With `CC(C)[C@@H]1CC[C@@H](C)C[C@H]1OC(=O)c1cccc(Br)c1`, the “-logMIC” value in the data set with Escherichia coli is reported as 1.88; with Candida albicans, 2.04; in the data set on Aspergillus niger, 2.04; in the data set with Bacillus subtilis, 1.96; in the data set with Staphylococcus aureus, 1.96. The compound further gave a lipophilicity (logP) in data set [1] of 5.61.
As to `CC(C)[C@@H]1CC[C@@H](C)C[C@H]1OC(=O)c1ccc([N+](=O)[O-])cc1`, the “-logMIC” value in the data set with Escherichia coli stood at 1.99; with Candida albicans, 2.29; in the data set on Aspergillus niger, 2.18; in the data set on Bacillus subtilis it was 2.02; in the data set on Staphylococcus aureus it was 2.29. Further, the lipophilicity (logP) in data set [1] came out at 4.78.
For the compound `CC(C)[C@@H]1CC[C@@H](C)C[C@H]1OC(=O)c1ccccc1Br`, the “-logMIC” value stood at 1.98 with Escherichia coli; 2.04 with Candida albicans; 2.04 in the data set on Aspergillus niger; 2.04 in the data set on Bacillus subtilis; 2.04 in the data set with Staphylococcus aureus. This compound registered a logP in data set [1] of 5.61.
Turning to `Cc1cccc(C(=O)O[C@@H]2C[C@H](C)CC[C@H]2C(C)C)c1`, the “-logMIC” value in the data set on Escherichia coli is given as 1.93; with Candida albicans, 1.94; in the data set with Aspergillus niger, 2.03; in the data set with Bacillus subtilis it was 2.02; in the data set with Staphylococcus aureus, 2.05. Also, the lipophilicity (logP) in data set [1] came to 5.29.
For `CCC(=O)O[C@@H]1C[C@H](C)CC[C@H]1C(C)C`, the “-logMIC” value is recorded as 1.75 with Escherichia coli; 1.83 with Candida albicans; 2.13 in the data set with Aspergillus niger; 1.88 in the data set with Bacillus subtilis; 1.75 in the data set with Staphylococcus aureus. The logP in data set [1] turned out to be 3.54.
As to `CC(C)[C@@H]1CC[C@@H](C)C[C@H]1OC(=O)c1ccccc1[N+](=O)[O-]`, the “-logMIC” value in the data set with Escherichia coli was determined as 2.29; in the data set on Candida albicans, 2.29; with Aspergillus niger, 2.17; with Bacillus subtilis it was 2.03; with Staphylococcus aureus it was 1.99. For the same compound, the logP in data set [1] worked out at 4.78.
Turning to `CC(=O)O[C@@H]1C[C@H](C)CC[C@H]1C(C)C`, the “-logMIC” value with Escherichia coli was found to be 1.5; in the data set with Candida albicans, 1.8; in the data set on Aspergillus niger, 1.98; in the data set with Bacillus subtilis, 1.8; with Staphylococcus aureus it was 1.5. Also, in data set [1], the logP is 2.91.
As for `CC(C)[C@@H]1CC[C@@H](C)C[C@H]1OC(=O)c1ccc(Cl)cc1Cl`, the “-logMIC” value in the data set on Escherichia coli turned out to be 2.02; in the data set with Candida albicans, 1.72; with Aspergillus niger, 1.95; with Bacillus subtilis it was 1.96; in the data set with Staphylococcus aureus, 2.02. The compound further showed a logP in data set [1] of 5.86.
Consider `COc1ccc(C(=O)O[C@@H]2C[C@H](C)CC[C@H]2C(C)C)cc1`, for which the “-logMIC” value in the data set on Escherichia coli was 1.98; with Candida albicans, 1.67; in the data set with Aspergillus niger, 2.04; with Bacillus subtilis it was 2.01; in the data set with Staphylococcus aureus, 2.01. This compound gave a logP in data set [1] of 4.57.
Take `CC(C)[C@@H]1CC[C@@H](C)C[C@H]1OC(=O)c1ccc(Cl)cc1`: the “-logMIC” value in the data set on Escherichia coli is 1.67; with Candida albicans it was 1.67; in the data set on Aspergillus niger it was 2.05; in the data set on Bacillus subtilis, 1.97; with Staphylococcus aureus it was 1.88. Moreover, in data set [1], the logP was 5.34.
Consider `CC(C)[C@@H]1CC[C@@H](C)C[C@H]1OC(=O)/C=C/c1ccccc1`, for which the “-logMIC” value in the data set on Escherichia coli was found to be 1.96; in the data set on Candida albicans, 1.96; with Aspergillus niger, 2.01; with Bacillus subtilis, 2.26; in the data set on Staphylococcus aureus, 1.96. This compound displayed a log partition coefficient (logP) in data set [1] of 5.23.
For the compound `CC(C)[C@@H]1CC[C@@H](C)C[C@H]1OC(=O)c1ccccc1` [MENTHYL BENZOATE], the “-logMIC” value with Escherichia coli was 2.01; with Candida albicans, 1.92; in the data set on Aspergillus niger, 1.92; in the data set on Bacillus subtilis, 2.01; in the data set with Staphylococcus aureus, 1.92. Also, the logP in data set [1] was determined as 4.82.
Turning to `OC(Cn1cncn1)(Cn1cncn1)c1ccc(F)cc1F` [FLUCONAZOLE], the “-logMIC” value in the data set on Candida albicans and in the data set with Aspergillus niger was 2.64 throughout.
As for `CC(C)[C@@H]1CC[C@@H](C)C[C@H]1OC(=O)/C=C/c1cccc([N+](=O)[O-])c1`, the “-logMIC” value in the data set with Escherichia coli is reported as 2.14; with Candida albicans, 2.33; in the data set on Aspergillus niger, 2.33; in the data set with Bacillus subtilis, 2.03; in the data set on Staphylococcus aureus it was 2.33. For the same compound, in data set [1], the log partition coefficient (logP) worked out at 5.18.
On to `COc1ccccc1C(=O)O[C@@H]1C[C@H](C)CC[C@H]1C(C)C`, for which the “-logMIC” value in the data set with Escherichia coli is 1.97; in the data set with Candida albicans, 1.97; in the data set on Aspergillus niger, 2.07; in the data set with Bacillus subtilis, 1.98; with Staphylococcus aureus it was 2.06. In data set [1], this compound came in with a lipophilicity (logP) of 4.57.
With `CC(C)[C@@H]1CC[C@@H](C)C[C@H]1OC(=O)c1ccc(Br)cc1`, the “-logMIC” value in the data set on Escherichia coli came to 2.02; in the data set with Candida albicans, 1.85; in the data set with Aspergillus niger, 2.04; in the data set on Bacillus subtilis, 2.04; in the data set on Staphylococcus aureus, 1.98. In data set [1], this compound had a logP of 5.61.
Regarding `CC(C)[C@@H]1CC[C@@H](C)C[C@H]1OC(=O)c1ccccc1Cl`, the “-logMIC” value was found to be 2.1 in the data set on Escherichia coli; 1.97 in the data set with Candida albicans; 2.1 in the data set with Aspergillus niger; 1.91 with Bacillus subtilis; 1.97 in the data set on Staphylococcus aureus. In data set [1], the logP stood at 5.34.
